Experimental findings from US11773399B2, “Methods and compositions for enhancing polypeptide production” (priority 2009, dated 2023) are described below.

Series [1] relates to N. benthamiana plants. In words: Transient chIL-12 expression after vacuum co-infiltration, anti-his Western blot and densitometry. It is filed as in vivo. On the procedure:
Transient infiltration was done according Medrano et al (2009), with some modifications as follows. Briefly, an A. tumefaciens inoculum integrated with the binary vector pBIB-Kan encoding IL-12 was cultured under standard conditions for 2 days at 28° C. The bacterial cultures were centrifuged and resuspended to a final OD600 of 0.2-0.8, in 400 mL of a induction medium (“IM”; 0.5× Murashige and Skoog basal medium salts, 1× MS vitamins, 5% sucrose, 1× benzylaminopurine, 200 μM acetosyringone, pH 5.5). The cultures were incubated in 1M for ≥3 h at 28° C. Vacuum infiltration of 4-5-week-old N. benthamiana was accomplished by inverting a plant into a 400 mL glass beaker containing IM, ensuring that all leaves of the plant are immersed in the media. The beaker was placed in a vacuum desiccator unit (240-mm inner diameter) and using a vacuum pump, maximum pressure (˜25 in. Hg) was applied for 2 min and then quickly released. Additional plants were subject to infiltration using the same construct/antioxidant culture, or replaced with a new beaker of IM containing another construct/antioxidant culture. A single IM culture was used for infiltrating typically 3 but up to 10 independent plants with no adverse effect on the amount of transgene product expressed and presence of exogenously introduced antioxidant in planta respectively. Infiltrated plants were returned to the environmental chamber at conditions established previously during plant growth. In the case of both model transgene constructs, leaves were harvested from plants at 48 h post-infiltration and stored at −80° C. for subsequent analyses.
Vitamin E and vitamin K were solubilized in chloroform and kept on amber tube on ice. […]
(§1) Samples were resolved by SDS-PAGE (run under denaturing or reducing conditions) and Western immunoblotting analysis performed. […] Densitometry using the BIORAD® VERSDOC4000™ and QUANT-1® software package was employed and relative protein expression was determined in order to evaluate the effect of antioxidants on plant-made protein expression.

In another series the test system is Stable N. tabacum lines. Put plainly: hIL-12 expression in stable transgenic lines after vacuum infiltration, Western blot. The format is in vivo. As to conditions: AsA in IM media, leaves 24 and 48 h. On the procedure:
(§2) Samples were resolved by SDS-PAGE (run under denaturing or reducing conditions) and Western immunoblotting analysis performed. For hIL-12 detection, primary antibody anti-human IL-12 (1:1000 v/v; R&D Systems) and secondary antibody anti-goat IgG-alkaline phosphatase conjugated (1:10,000 v/v; BIORAD®) was used. For chIL-12 detection, anti-6×His (C-term)-alkaline phosphatase conjugated (1:2000 v/v; Invitrogen) was used. Detection on immunoblots was carried out using the CDP-Star chemiluminescent substrate for alkaline phosphatase (Roche, Indianapolis, Ind.) and NitroBlock. Enhancer II (Tropix Inc., Bedford, Mass.) in accordance with manufacturers' procedures. Densitometry using the BIORAD® VERSDOC4000™ and QUANT-1® software package was employed and relative protein expression was determined in order to evaluate the effect of antioxidants on plant-made protein expression.
This finding further supports the concept that increasing the antioxidant capacity of the host plant enhances the overall biosynthesis of the plant in serving as a factory for recombinant protein production.
A general note: A western blot detects proteins with antibodies after separation by electrophoresis.

For another series, the system named is H2O2 in leaves. Put plainly: In situ H2O2 detection in leaves, DAB staining. The format is in vivo, N. benthamiana. The text has this: Staining for H2O2 in leaves which correlates with the presence of reactive oxygen species (ROS) is detected by an endogenous peroxidase-dependent staining procedure, using 3,3-diaminobenzidine (DAB). This assay provides a comparative in situ measure of the ROS levels in planta (Thordal-Christensen et al., 1997).

Series [2] concerns transient system host plants. In words: Foliar ascorbate content of infiltrated host plants, ascorbate oxidase assay. The format is in vivo, N. benthamiana. As to conditions: increasing infiltrated AsA. As for the experimental part: Leaf tissue ground in the presence of liquid nitrogen with mortar/pestle was extracted. The foliar vitamin C content was determined by the ascorbate oxidase assay as previously described (Lorence et al., 2004). Briefly, tissue samples were harvested and immediately frozen in liquid nitrogen and stored at -80° C. till analysis. Samples were ground in 6% (w/v) meta-phosphoric acid, and centrifuged at 15,000×g for 10 min. Reduced vitamin C (a.k.a. ascorbate) was determined by measuring the decline in […] (extinction coefficient of 14.3 cm^-1 mM^-1) after addition of 1 unit of ascorbate oxidase (Sigma) to 1 mL of the reaction mix including tissue extract and 100 mM potassium phosphate (pH 6.9). […] Foliar ascorbate content was determined by a microplate reader-based method described herein. […] Reduced ascorbate was determined in a 300 μL reaction in triplicates by adding 275 μL of 0.1M of potassium phosphate buffer pH 6.9 into a 96-well plate (UV Flat Bottom Microplate, Thermo Scientific) containing 15 μL of sample supernatant. The mix was measured at […] and recorded. The decline in […] was measured after addition of 10 μL (1 U) of ascorbate oxidase (final concentration 0.0033 units of ascorbate oxidase, Sigma). […] The mix was measured at […] and recorded. […] […] was measure using a plate reader (model Power Wave XS, software KC Junior, Biotek).

A further series has as its system N. benthamiana leaves. Put plainly: Recovery of purified hIL-12, heterodimer-specific hIL-12 ELISA. It is filed as in vivo. As to conditions: 20 mM exogenously added AsA vs no antioxidant. On the procedure: The amount of hIL-12 expressed in N. benthamiana leaves in the presence or absence of modified antioxidants levels during bioproduction was quantitated using a commercially available heterodimer-specific hIL-12 enzyme-linked immunoabsorbant assay (ELISA) (R&D Systems). To assay hIL-12, leaves were ground in PBS buffer (137 mM NaCl, 2.7 mM KCl, 10.1 mM Na2HPO4, and […] KH2PO4 pH 7.0) at a 1:2 (w/v) ratio and supernatant extracts were analyzed by the ELISA. For hIL-12 detection, the ELISA used monoclonal antibodies specific for hIL-12 p70 for capture (0.2 μg/mL) and biotinylated anti-human IL-12 antibody for detection (4 μg/mL). Streptavidin-HRP (1:200 v/v) was used for chemiluminescence and 3,3′,5,5′-tetramethylbenzidine (TMB; KPL) as a substrate for detection. Densitometry using the BIORAD® VERSDOC4000™ and QUANT-1® software package was employed and was established relative protein expression in order to evaluate the impact of antioxidants on its expression in plants.
For orientation: ELISA stands for enzyme-linked immunosorbent assay.

The test system of series [3] is plant transient bioproduction system. Put plainly: Transient expression of a 94 kDa human glycoprotein, Western blot. As to conditions: 20 mM co-infiltrated AsA, 72 hrs post-infiltration. The format is in vivo. On the procedure:
Transient infiltration was done according Medrano et al (2009), with some modifications as follows. Briefly, an A. tumefaciens inoculum integrated with the binary vector pBIB-Kan encoding IL-12 was cultured under standard conditions for 2 days at 28° C. The bacterial cultures were centrifuged and resuspended to a final OD600 of 0.2-0.8, in 400 mL of a induction medium (“IM”; 0.5× Murashige and Skoog basal medium salts, 1× MS vitamins, 5% sucrose, 1× benzylaminopurine, 200 μM acetosyringone, pH 5.5). The cultures were incubated in 1M for ≥3 h at 28° C. Vacuum infiltration of 4-5-week-old N. benthamiana was accomplished by inverting a plant into a 400 mL glass beaker containing IM, ensuring that all leaves of the plant are immersed in the media. The beaker was placed in a vacuum desiccator unit (240-mm inner diameter) and using a vacuum pump, maximum pressure (˜25 in. Hg) was applied for 2 min and then quickly released. […]
as §1

The subject of series [4] is N. benthamiana plants. In words: Transient hIL-12 expression after vacuum co-infiltration, Western blot and densitometry. It is filed as in vivo. As to conditions: for increase in hIL-12 expression (semi-quantitative densitometry): 20 mM AsA in induction medium, vs construct alone. As for the experimental part:
Transient infiltration was done according Medrano et al (2009), with some modifications as follows. Briefly, an A. tumefaciens inoculum integrated with the binary vector pBIB-Kan encoding IL-12 was cultured under standard conditions for 2 days at 28° C. The bacterial cultures were centrifuged and resuspended to a final OD600 of 0.2-0.8, in 400 mL of a induction medium (“IM”; 0.5× Murashige and Skoog basal medium salts, 1× MS vitamins, 5% sucrose, 1× benzylaminopurine, 200 μM acetosyringone, pH 5.5). The cultures were incubated in 1M for ≥3 h at 28° C. Vacuum infiltration of 4-5-week-old N. benthamiana was accomplished by inverting a plant into a 400 mL glass beaker containing IM, ensuring that all leaves of the plant are immersed in the media. The beaker was placed in a vacuum desiccator unit (240-mm inner diameter) and using a vacuum pump, maximum pressure (˜25 in. Hg) was applied for 2 min and then quickly released. Additional plants were subject to infiltration using the same construct/antioxidant culture, or replaced with a new beaker of IM containing another construct/antioxidant culture. A single IM culture was used for infiltrating typically 3 but up to 10 independent plants with no adverse effect on the amount of transgene product expressed and presence of exogenously introduced antioxidant in planta respectively. Infiltrated plants were returned to the environmental chamber at conditions established previously during plant growth. […]
(§3) Vitamin E and vitamin K were solubilized in chloroform and kept on amber tube on ice. The final concentration range of vitamins E and K tested were 5-100 μM.
as §2

The subject of another series is host plants. Put plainly: Toxicity of infiltrated antioxidant to the host plant (necrosis). The note with it: for toxicity to the plant: 100 μM. On the procedure: Transient infiltration was done according Medrano et al (2009), with some modifications as follows. Briefly, an A. tumefaciens inoculum integrated with the binary vector pBIB-Kan encoding IL-12 was cultured under standard conditions for 2 days at 28° C. The bacterial cultures were centrifuged and resuspended to a final OD600 of 0.2-0.8, in 400 mL of a induction medium (“IM”; 0.5× Murashige and Skoog basal medium salts, 1× MS vitamins, 5% sucrose, 1× benzylaminopurine, 200 μM acetosyringone, pH 5.5). The cultures were incubated in 1M for ≥3 h at 28° C. Vacuum infiltration of 4-5-week-old N. benthamiana was accomplished by inverting a plant into a 400 mL glass beaker containing IM, ensuring that all leaves of the plant are immersed in the media. The beaker was placed in a vacuum desiccator unit (240-mm inner diameter) and using a vacuum pump, maximum pressure (˜25 in. Hg) was applied for 2 min and then quickly released. Additional plants were subject to infiltration using the same construct/antioxidant culture, or replaced with a new beaker of IM containing another construct/antioxidant culture. […] Infiltrated plants were returned to the environmental chamber at conditions established previously during plant growth. In the case of both model transgene constructs, leaves were harvested from plants at 48 h post-infiltration and stored at −80° C. for subsequent analyses.
as §3

As to `O=C1O[C@H]([C@@H](O)CO)C(O)=C1O` [AsA, ascorbic acid], the “increase in chIL-12 protein expression” value in the series on N. benthamiana plants [1] (20 mM AsA, 48 h post-infiltration, on average) was about 3 fold. In addition, the “hIL-12 protein levels in stable transgenic plants” value with Stable N. tabacum lines is “increasing the overall expression of hIL-12 protein levels”. The “H2O2 staining (DAB)” value in the series with H2O2 in leaves (80 mM AsA) is “some staining”; with H2O2 in leaves (100 mM AsA) it was “clearly detectable”; in the series with H2O2 in leaves (20 to 60 mM AsA), “minimal”. Besides, the “in planta foliar AsA levels” value in series [2] is on record as “dose-dependent increase”. Moreover, the “more purified hIL12 product recovered (ELISA)” value in the series on N. benthamiana leaves is recorded as 20-25%. In addition, the “stable accumulation of 94 kDa human glycoprotein” value in series [3] was “enhanced”. The “hIL-12 protein expression levels, dose response” value in the series with N. benthamiana plants [4] (0, 20, 40, 60 mM AsA) is “dose dependent increase”. For the same compound, the “increase in hIL-12 expression (semi-quantitative densitometry)” value in the series on N. benthamiana plants [4] is 25-30%; with N. benthamiana plants [4] (listed as vitamin C) it was about 25%. Moreover, in the series with N. benthamiana plants [4] (20 mM co-infiltrated AsA vs construct alone), the “monomeric, single-chain hIL12 on Western blot” value was “significant increase”. Further, the “oligomer formation of hIL-12” value in the series with N. benthamiana plants [4] (48 and 72 h post-infiltration, vs 0 mM AsA) is listed as “abrogates oligomer formation of hIL-12”. The “time hIL-12 is sustained in planta” value in the series on N. benthamiana plants [4] (co-infiltrated AsA vs 0 mM AsA) was “up to 72 h”. In the series on N. benthamiana plants [4] (plant transient infiltration system), the “effective dose range for recombinant protein production” value was 20 to 60 mM. Further, the “effect on leaves/cells of host plants” value in the series with host plants (80 mM) is reported as “began to show signs of necrosis”; in the series on host plants (80 mM, listed as vitamin C) it was “detrimental”; with host plants (100 mM), “significant necrotic lesions”; in the series with host plants (100 mM, listed as vitamin C), “detrimental”.

On to vitamin E, for which the “chIL12 protein production at higher concentrations” value in the series on N. benthamiana plants [1] (50-100 μM) was “reduced improvement in protein production”. Moreover, the “concentration with greatest impact in transient chIL12 protein expression” value in the series on N. benthamiana plants [1] (dose-response 5-100 mM) came out at 20 µM. Also, in the series on N. benthamiana plants [4] (vitamin E alone), the “transient hIL-12 expression” value is listed as “no effect on expression”. The “toxicity to the plant” value in the series with host plants is given as “appeared to be toxic”.

As to vitamin K, in the series with host plants, the “toxicity to the plant” value is “detrimental”.
